From ChEMBL document CHEMBL6182931, “Chemical Evolution of Aplithianine Class of Serine/Threonine Kinase Inhibitors” (J Med Chem, 2025)
pIC50: −log10 of the molar value. Active and inactive are the calls of the source. The rule behind the calls is not given here.

Experiments:
[1] = test system: OVCAR-4; test: Antiproliferative activity against human OVCAR-4 cells assessed as growth inhibition; assay type: functional, cell-based
[2] = test system: MOLT-4; test: Antiproliferative activity against human MOLT-4 cells assessed as growth inhibition; assay type: functional
[3] = biological target: RAC-beta serine/threonine-protein kinase (Homo sapiens) (UniProt P31751); test: Inhibition of human Akt2 at 50 nM in presence of ATP by radiometric Hotspot kinase assay
Chain of RAC-beta serine/threonine-protein kinase (Homo sapiens) (P31751 whole entry): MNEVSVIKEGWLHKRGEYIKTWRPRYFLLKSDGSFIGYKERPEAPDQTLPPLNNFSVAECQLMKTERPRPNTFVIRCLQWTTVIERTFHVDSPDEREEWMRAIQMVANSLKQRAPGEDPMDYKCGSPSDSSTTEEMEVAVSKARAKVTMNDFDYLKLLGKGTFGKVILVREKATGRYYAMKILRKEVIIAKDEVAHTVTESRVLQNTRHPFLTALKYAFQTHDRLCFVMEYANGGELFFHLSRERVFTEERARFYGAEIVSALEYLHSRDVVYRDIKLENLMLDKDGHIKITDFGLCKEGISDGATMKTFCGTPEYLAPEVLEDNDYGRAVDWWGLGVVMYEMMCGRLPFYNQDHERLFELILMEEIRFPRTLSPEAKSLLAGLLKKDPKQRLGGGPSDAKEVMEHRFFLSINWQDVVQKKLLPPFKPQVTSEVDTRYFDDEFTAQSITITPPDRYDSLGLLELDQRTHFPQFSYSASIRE

[4] = biological target: T1, cGMP-dependent protein kinase 1 (Homo sapiens) (UniProt Q13976); settings: dose 50.0 nM
T1 sequence (whole entry): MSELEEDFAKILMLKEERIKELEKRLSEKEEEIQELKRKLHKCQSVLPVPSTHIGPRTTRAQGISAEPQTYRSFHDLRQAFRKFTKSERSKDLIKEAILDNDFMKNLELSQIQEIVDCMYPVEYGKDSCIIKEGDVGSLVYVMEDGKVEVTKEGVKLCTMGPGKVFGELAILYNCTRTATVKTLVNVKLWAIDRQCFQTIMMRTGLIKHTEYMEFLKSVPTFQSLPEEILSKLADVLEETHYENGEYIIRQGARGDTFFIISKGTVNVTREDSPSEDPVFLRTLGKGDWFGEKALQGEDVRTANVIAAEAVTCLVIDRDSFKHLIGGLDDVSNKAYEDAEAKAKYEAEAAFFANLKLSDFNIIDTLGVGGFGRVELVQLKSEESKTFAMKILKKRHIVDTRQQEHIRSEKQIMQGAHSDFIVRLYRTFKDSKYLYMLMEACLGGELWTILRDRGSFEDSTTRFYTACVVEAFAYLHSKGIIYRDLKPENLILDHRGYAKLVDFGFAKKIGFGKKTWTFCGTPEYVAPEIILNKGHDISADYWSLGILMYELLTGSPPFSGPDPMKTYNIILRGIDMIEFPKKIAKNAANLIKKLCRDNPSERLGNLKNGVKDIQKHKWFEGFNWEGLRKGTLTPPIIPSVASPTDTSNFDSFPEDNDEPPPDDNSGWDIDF
Description: Inhibition of human PKG1alpha at 50 nM in presence of ATP by radiometric Hotspot kinase assay

[5] = biological target: RAC-gamma serine/threonine-protein kinase (Homo sapiens) (UniProt Q9Y243); test: Inhibition of human Akt3 at 50 nM in presence of ATP by radiometric Hotspot kinase assay
Chain of RAC-gamma serine/threonine-protein kinase (Homo sapiens) (Q9Y243 whole entry): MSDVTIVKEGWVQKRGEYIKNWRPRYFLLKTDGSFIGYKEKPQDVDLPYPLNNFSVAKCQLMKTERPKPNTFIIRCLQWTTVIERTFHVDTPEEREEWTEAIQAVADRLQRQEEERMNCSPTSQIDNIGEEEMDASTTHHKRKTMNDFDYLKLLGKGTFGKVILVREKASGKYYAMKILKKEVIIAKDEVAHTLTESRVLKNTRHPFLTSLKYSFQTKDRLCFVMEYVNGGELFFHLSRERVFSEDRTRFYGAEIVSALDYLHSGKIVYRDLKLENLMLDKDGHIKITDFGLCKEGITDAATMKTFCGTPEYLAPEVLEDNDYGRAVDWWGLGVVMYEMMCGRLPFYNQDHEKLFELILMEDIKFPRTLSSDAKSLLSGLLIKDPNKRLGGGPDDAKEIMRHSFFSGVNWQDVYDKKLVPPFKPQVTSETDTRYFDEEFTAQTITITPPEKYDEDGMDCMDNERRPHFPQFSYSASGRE

[6] = Apparent permeability across apical to basolateral side in human Caco-2 cells at 10 uM; assay type: ADME, cell-based; settings: caco-2, 10 µM
[7] = test system: SR; test: Antiproliferative activity against human SR cells assessed as growth inhibition; assay type: functional
[8] = Metabolic stability in human liver microsomes assessed as half-life at 0.1 uM measured after 60 mins; assay type: ADME, Microsome; settings: 1 h
[9] = biological target: Receptor-type tyrosine-protein kinase FLT3 (Homo sapiens) (UniProt P36888); test: Inhibition of human FLT3 at 50 nM in presence of ATP by radiometric Hotspot kinase assay relative to control
Chain of Receptor-type tyrosine-protein kinase FLT3 (Homo sapiens) (P36888 whole entry): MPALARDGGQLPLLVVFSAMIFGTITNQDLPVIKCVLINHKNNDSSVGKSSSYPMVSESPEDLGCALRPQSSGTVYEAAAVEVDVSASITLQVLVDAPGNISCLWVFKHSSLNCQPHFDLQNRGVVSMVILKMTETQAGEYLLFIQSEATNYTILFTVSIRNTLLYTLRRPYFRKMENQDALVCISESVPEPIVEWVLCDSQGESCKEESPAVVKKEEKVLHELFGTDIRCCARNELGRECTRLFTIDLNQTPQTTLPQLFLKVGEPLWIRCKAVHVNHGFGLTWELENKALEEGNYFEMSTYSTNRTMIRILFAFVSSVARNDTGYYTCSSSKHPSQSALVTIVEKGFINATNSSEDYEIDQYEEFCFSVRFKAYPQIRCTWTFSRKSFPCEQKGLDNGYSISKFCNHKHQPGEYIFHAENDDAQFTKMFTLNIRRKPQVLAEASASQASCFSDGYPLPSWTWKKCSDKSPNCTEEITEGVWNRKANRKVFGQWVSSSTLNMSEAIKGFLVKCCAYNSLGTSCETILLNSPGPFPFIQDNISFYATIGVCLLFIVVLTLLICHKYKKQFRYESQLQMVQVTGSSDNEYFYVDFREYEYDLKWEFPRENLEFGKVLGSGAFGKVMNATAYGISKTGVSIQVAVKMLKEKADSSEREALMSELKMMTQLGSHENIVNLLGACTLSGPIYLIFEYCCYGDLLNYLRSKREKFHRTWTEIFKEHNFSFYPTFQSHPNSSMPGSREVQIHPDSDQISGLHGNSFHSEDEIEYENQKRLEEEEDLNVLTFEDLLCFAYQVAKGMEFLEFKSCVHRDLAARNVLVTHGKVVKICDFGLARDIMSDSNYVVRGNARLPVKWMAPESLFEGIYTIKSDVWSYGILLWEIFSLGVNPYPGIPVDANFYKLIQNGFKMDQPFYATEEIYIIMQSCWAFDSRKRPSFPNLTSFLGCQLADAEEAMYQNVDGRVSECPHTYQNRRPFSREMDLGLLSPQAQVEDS

[10] = biological target: RAC-alpha serine/threonine-protein kinase (Homo sapiens) (UniProt P31749); test: Inhibition of human Akt1 at 50 nM in presence of ATP by radiometric Hotspot kinase assay
Chain of RAC-alpha serine/threonine-protein kinase (Homo sapiens) (P31749 whole entry): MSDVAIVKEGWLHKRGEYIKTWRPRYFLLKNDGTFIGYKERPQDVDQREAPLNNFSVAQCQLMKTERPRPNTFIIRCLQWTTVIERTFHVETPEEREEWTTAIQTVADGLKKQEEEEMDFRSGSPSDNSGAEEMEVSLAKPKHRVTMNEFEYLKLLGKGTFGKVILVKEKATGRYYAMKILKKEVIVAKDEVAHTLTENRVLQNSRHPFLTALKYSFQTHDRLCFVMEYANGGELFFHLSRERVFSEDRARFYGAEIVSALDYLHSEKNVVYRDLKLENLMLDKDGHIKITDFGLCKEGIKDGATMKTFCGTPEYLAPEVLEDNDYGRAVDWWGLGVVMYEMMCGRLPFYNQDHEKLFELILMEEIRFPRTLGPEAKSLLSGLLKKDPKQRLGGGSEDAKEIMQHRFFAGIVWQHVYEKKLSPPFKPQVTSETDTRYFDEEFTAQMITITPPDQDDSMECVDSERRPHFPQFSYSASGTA

[11] = species: Homo sapiens; test: Induction of thermal stabilization of His-tagged DNAJB1-PKAcalpha (unknown origin) incubated for 15 min by differential scanning fluorometric analysis
[12] = Apparent permeability across basolateral to apical side in human Caco-2 cells at 10 uM; assay type: ADME, cell-based; settings: caco-2, 10 µM
[13] = test system: LOX IMVI; test: Antiproliferative activity against human LOX IMVI cells assessed as growth inhibition; assay type: functional
[14] = test system: NCI/ADR-RES; test: Antiproliferative activity against human NCI/ADR-RES cells assessed as growth inhibition; assay type: functional, cell-based
[15] = biological target: Albumin (Homo sapiens, UniProt P02768); test: Binding affinity to human serum albumin assessed as protein binding at 10 uM by equilibrium dialysis technique relative to control; assay type: ADME; settings: isolated protein
Chain of Albumin (P02768 whole entry): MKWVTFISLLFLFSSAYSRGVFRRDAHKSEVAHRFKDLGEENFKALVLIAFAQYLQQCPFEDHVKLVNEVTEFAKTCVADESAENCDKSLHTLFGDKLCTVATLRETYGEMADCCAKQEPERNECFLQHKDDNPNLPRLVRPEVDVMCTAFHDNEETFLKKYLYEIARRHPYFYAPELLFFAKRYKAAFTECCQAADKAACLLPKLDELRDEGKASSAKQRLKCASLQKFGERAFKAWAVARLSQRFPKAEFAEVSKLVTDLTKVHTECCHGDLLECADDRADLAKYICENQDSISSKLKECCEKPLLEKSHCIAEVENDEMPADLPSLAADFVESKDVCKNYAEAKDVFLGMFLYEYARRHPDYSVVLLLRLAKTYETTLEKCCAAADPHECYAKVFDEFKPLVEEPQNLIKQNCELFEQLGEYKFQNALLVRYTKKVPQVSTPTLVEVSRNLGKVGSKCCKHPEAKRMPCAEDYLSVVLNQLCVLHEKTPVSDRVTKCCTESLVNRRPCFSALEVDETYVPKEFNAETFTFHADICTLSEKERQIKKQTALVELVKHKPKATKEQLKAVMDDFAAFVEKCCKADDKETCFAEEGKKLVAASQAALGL

[16] = biological target: Dual specificity protein kinase CLK2 (Homo sapiens) (UniProt P49760); test: Inhibition of human CLK2 at 50 nM in presence of ATP by radiometric Hotspot kinase assay relative to control
[17] = Aqueous solubility of compound in PBS at pH 7.4 by shake-flask method; assay type: physicochemical
[18] = biological target: NT-3 growth factor receptor (Homo sapiens) (UniProt Q16288); test: Inhibition of human TRKC at 50 nM in presence of ATP by radiometric Hotspot kinase assay relative to control
Chain of NT-3 growth factor receptor (Homo sapiens) (Q16288 32-839 limits assumed): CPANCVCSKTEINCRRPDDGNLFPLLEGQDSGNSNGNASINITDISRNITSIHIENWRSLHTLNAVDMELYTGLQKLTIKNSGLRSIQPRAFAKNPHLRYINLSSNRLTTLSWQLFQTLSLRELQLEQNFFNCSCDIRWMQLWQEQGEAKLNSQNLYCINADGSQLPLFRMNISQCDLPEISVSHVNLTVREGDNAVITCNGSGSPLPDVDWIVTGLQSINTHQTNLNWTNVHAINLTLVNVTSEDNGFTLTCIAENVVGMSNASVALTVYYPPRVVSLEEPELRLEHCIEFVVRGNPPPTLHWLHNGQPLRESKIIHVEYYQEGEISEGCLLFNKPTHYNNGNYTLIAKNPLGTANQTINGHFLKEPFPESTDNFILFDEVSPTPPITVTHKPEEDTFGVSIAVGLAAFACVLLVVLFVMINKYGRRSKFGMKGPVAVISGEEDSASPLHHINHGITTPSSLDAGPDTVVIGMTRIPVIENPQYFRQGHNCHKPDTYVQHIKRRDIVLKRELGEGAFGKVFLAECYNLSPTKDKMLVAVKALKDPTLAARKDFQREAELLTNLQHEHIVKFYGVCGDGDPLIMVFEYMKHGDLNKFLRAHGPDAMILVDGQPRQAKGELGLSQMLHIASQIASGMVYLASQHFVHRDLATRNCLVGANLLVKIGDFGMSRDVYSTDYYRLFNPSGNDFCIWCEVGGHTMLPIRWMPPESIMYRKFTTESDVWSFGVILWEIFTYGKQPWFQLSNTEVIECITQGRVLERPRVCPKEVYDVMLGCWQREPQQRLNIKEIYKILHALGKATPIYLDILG

[19] = biological target: cAMP-dependent protein kinase catalytic subunit beta (Homo sapiens) (UniProt P22694); test: Inhibition of human PKAbeta at 50 nM in presence of ATP by radiometric Hotspot kinase assay
[20] = biological target: Dual specificity protein kinase CLK1 (Homo sapiens) (UniProt P49759); test: Inhibition of human CLK1 at 50 nM in presence of ATP by radiometric Hotspot kinase assay relative to control
[21] = biological target: Dual specificity tyrosine-phosphorylation-regulated kinase 1B (Homo sapiens) (UniProt Q9Y463); test: Inhibition of human DYRK1B at 50 nM in presence of ATP by radiometric Hotspot kinase assay relative to control
[22] = Metabolic stability in human liver microsomes assessed as intrinsic clearance at 0.1 uM measured after 60 mins; assay type: ADME, Microsome; settings: 1 h
[23] = Inhibition of DNAJB1-PKAcalpha (unknown origin) overexpressed in mouse NIH/3T3 cells assessed as inhibition of CREB phosphorylation at Ser133 residue preincubated for 30 mins followed by forskolin addition and measured after 30 mins by fluorescence based multilabel reader analysis; assay type: cell-based; settings: NIH3T3
[24] = Drug metabolism in human liver microsomes at 0.1 uM measured after 60 mins; assay type: ADME, Microsome; settings: 1 h
[25] = biological target: Dual specificity protein kinase CLK4 (Homo sapiens) (UniProt Q9HAZ1); test: Inhibition of human CLK4 at 50 nM in presence of ATP by radiometric Hotspot kinase assay relative to control
[26] = biological target: Dual specificity tyrosine-phosphorylation-regulated kinase 1A (Homo sapiens) (UniProt Q13627); test: Inhibition of human DYRK1A at 50 nM in presence of ATP by radiometric Hotspot kinase assay relative to control
[27] = test system: MDA-MB-468; test: Antiproliferative activity against human MDA-MB-468 cells assessed as growth inhibition; assay type: functional, cell-based
[28] = biological target: hERG (KCNH2) (Homo sapiens, UniProt Q12809); test: Inhibition of human ERG expressed in CHO cells at 10 uM by electrophysiological analysis relative to control; assay type: toxicity, cell-based; settings: CHO cells that express human ERG
Chain of hERG (KCNH2) (Q12809 whole entry): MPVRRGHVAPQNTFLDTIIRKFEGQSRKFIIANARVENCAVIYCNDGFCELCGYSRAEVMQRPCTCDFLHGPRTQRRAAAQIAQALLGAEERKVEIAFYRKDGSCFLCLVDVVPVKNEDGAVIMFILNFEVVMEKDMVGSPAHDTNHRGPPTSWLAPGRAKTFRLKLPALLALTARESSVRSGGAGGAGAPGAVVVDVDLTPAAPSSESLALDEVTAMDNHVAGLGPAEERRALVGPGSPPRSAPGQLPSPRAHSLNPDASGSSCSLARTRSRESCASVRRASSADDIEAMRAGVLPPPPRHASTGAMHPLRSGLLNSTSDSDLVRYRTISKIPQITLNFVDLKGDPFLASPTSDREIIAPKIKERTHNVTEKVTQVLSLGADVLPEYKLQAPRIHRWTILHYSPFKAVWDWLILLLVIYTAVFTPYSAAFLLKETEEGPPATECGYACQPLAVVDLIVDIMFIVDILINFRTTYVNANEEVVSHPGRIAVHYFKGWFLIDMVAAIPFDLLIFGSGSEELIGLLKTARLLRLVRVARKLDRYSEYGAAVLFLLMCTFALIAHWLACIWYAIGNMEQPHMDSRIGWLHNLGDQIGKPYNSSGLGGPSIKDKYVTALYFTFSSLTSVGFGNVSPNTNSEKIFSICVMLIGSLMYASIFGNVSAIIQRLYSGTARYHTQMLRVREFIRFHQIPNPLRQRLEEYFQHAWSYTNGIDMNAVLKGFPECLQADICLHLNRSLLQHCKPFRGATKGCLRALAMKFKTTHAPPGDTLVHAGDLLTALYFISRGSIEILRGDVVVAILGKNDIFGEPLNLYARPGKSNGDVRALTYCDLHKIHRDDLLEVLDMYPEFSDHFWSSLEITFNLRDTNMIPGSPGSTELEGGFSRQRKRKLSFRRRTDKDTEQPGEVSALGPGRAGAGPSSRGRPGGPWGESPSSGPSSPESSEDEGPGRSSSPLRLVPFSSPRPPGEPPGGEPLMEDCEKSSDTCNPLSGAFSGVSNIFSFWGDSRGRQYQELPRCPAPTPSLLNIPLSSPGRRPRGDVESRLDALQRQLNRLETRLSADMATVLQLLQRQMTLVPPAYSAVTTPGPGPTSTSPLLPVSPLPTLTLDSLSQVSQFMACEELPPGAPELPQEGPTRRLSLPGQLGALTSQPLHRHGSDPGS

[29] = test system: Panel NCI-60 (60 carcinoma cell lines); test: Antiproliferative activity against human Panel NCI-60 (60 carcinoma cell lines) assessed as growth inhibition; assay type: functional
[30] = Inhibition of DNAJB1-PKAcalpha (unknown origin) using biotinylated-peptide substrate CREB incubated for 45 mins in presence of ATP and cAMP by ELISA; set-up: species or system Homo sapiens
[31] = biological target: T2, Dual specificity tyrosine-phosphorylation-regulated kinase 3 (Homo sapiens) (UniProt O43781); test: Inhibition of human DYRK3 at 50 nM in presence of ATP by radiometric Hotspot kinase assay relative to control
T2 sequence (whole entry): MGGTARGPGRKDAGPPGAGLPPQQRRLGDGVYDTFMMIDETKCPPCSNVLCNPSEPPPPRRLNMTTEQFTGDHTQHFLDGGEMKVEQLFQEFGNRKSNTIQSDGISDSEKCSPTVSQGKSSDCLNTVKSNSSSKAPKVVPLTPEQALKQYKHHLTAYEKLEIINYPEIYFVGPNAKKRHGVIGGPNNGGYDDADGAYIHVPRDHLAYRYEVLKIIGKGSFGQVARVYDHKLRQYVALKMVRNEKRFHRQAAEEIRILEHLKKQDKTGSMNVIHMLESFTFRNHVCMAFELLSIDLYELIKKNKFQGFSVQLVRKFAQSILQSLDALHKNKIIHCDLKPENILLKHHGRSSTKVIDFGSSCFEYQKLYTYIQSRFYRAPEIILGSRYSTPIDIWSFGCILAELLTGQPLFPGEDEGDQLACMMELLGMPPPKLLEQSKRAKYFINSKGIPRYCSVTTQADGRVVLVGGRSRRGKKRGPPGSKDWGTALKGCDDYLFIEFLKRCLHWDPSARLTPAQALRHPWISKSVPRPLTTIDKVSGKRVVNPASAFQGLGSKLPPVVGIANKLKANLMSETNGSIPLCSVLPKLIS

[32] = Efflux ratio of apparent permeability across basolateral to apical side over apical to basolateral side in human Caco-2 cells at 10 uM; assay type: ADME, cell-based
[33] = biological target: T3, Dual specificity tyrosine-phosphorylation-regulated kinase 2 (Homo sapiens) (UniProt Q92630); test: Inhibition of human DYRK2 at 50 nM in presence of ATP by radiometric Hotspot kinase assay relative to control
T3 sequence (whole entry): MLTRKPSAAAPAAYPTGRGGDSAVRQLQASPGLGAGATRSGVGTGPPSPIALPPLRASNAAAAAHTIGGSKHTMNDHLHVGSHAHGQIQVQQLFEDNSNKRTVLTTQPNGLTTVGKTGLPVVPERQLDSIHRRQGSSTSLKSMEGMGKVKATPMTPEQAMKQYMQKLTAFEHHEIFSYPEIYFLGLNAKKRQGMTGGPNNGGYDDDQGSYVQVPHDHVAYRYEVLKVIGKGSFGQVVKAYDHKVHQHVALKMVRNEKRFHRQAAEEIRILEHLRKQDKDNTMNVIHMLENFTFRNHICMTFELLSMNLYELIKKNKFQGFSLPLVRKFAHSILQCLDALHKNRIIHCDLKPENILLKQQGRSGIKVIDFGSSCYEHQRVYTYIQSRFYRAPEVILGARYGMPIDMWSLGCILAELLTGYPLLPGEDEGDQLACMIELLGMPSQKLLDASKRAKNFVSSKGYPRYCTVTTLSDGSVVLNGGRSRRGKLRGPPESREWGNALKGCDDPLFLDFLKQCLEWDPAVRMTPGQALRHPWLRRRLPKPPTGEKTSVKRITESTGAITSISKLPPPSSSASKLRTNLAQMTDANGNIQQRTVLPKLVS

[34] = biological target: cAMP-dependent protein kinase catalytic subunit alpha (Homo sapiens) (UniProt P17612); settings: dose 50.0 nM
Description: Inhibition of human PKAalpha at 50 nM in presence of ATP by radiometric Hotspot kinase assay relative to control

[35] = biological target: Tyrosine-protein kinase JAK2 (Homo sapiens) (UniProt O60674); test: Inhibition of human JAK2 at 50 nM in presence of ATP by radiometric Hotspot kinase assay relative to control
[36] = biological target: Tyrosine-protein kinase JAK3 (Homo sapiens) (UniProt P52333); test: Inhibition of human JAK3 at 50 nM in presence of ATP by radiometric Hotspot kinase assay relative to control
[37] = biological target: Tyrosine-protein kinase JAK1 (Homo sapiens) (UniProt P23458); test: Inhibition of human JAK1 at 50 nM in presence of ATP by radiometric Hotspot kinase assay relative to control

Row | Structure (SMILES) | Activity [1] | Activity [2] | inhibition [3] | inhibition [5] | Papp [6] | Activity [7] | t1/2 [8] [h] | inhibition [10] | Papp [12] | GI50 [13] [nM] | Activity [14] | PB [15] [%] | solubility thermodynamic [17] [µM] | inhibition [18] [%] | inhibition [19] | CLH [22] [µL/min/mg] | pIC50 [23] | Drug metabolism [24] | Activity [27] | inhibition at 10 µM [28] [%] | other results
1 | Cc1c[nH]c2ncnc(N3C=C(C(=O)N4CCC[C@@H](N)C4)SCC3)c12 | inactive | Active | Active | Active | 0.1 10^-6 cm/s | Active | > 1 | Active | 6.6 10^-6 cm/s | > 1000 | inactive | 84 | > 200 | > 50 | Active | < 115 | 5.47 | metabolite_notdetected | Active | 28 | inhibition [4]: Active; inhibition [9]: > 50%; Activity [11]: Dose-dependent-effect; inhibition [16]: Active; inhibition [20]: Active; inhibition [21]: Active; inhibition [25]: Active; inhibition [26]: Active
2 | Cn1c(Br)nc(Br)c1C1=CN(c2ncnc3[nH]cnc23)CCS1 | inactive | Active |  |  |  | Active |  |  |  | > 1000 | inactive |  |  |  |  |  |  |  | Active |  | GI50 [29]: 360 nM
3 | C1=C(c2ccnc3[nH]ccc23)SCCN1c1ccnc2[nH]ccc12 | inactive |  |  |  |  |  |  |  |  | > 1000 | inactive |  |  |  |  |  |  |  | Active |  | LC50 [2]: 780 nM; GI50 [29]: 1550 nM; pIC50 [30]: 5.55; LC50 [7]: 600 nM
4 | O=C(N[C@@H](c1ccccc1)[C@H]1CCCN1)C1=CN(c2ncnc3[nH]ccc23)CCS1 | inactive | Active | Active | Active | 0.3 10^-6 cm/s | Active | > 1 | Active | 19.7 10^-6 cm/s | 40 | inactive | 84 | > 200 | > 50 | Active | < 115 | 6.18 | metabolite_notdetected | Active | 33 | inhibition [31]: Active; efflux ratio at 10 µM [32]: 66; pIC50 [30]: 8.22; inhibition [33]: Active; inhibition [34]: Active; inhibition [35]: > 50%; inhibition [36]: > 50%; inhibition [37]: > 50%
